In patent US20020165236A1, “Compounds for the treatment of protozoal diseases” (priority 2001, published 2002):

System: multiresistant Dd2 strain of Plasmodium falciparum
Assay: antiplasmodial action, [8-3H]hypoxanthine incorporation, Dd2 strain
Assay type: cell-based
Settings: read-out: in vitro antiplasmodial activity (IC50 value class)
Description: For the determination of the antiplasmodial action of the compounds, the multiresistant Dd2 strain of Plasmodium falciparum was used. The incorporation of [8-^3H]hypoxanthine into the parasitic nucleic acids was measured. The plasmodia were incubated at 0.3% parasitaemia and an erythrocyte haematocrit of 2.5% in the presence of different concentrations of the compounds in a final volume of 200-μl. The medium employed was RPMI 1640 which contained 10% of heat-treated human serum and 3 mg/l of gentamycin. in the incubations, the concentrations of the compounds varied from 0.3 to 100 μM. After 48 h, each batch was treated with 50 µl of […] (1 mCi/ml) and incubated for a further 18 h. The cells were filtered off, washed and suspended in 20 μl of scintillation fluid. The radioactive hypoxanthine absorbed by the parasites was then quantified using a scintillation counter.
The results were presented graphically and the IC50 value was determined using a fitting function. The value IC50, the ‘inhibition constant’, indicates the value in μMol/1 at which 50% inhibition occurs.

`CSc1ccc(NC(=O)Nc2cccc(C(=N)NN)c2)cc1` [Compound 1] and `CSc1ccc(NC(=O)Nc2cccc(C(=N)N)c2)cc1` [Compound 7] fall in the same range of IC50: 1000 to 10000 nM for the first, 1000 to 10000 nM for the second.

`N=C(N)c1ccc(NC(=O)Nc2cccc(C(F)(F)F)c2)cc1` [Compound 2] and `N=C(N)c1cccc(NC(=O)Nc2ccc(C(F)(F)F)cc2)c1` [Compound 8] fall in the same range of IC50: 1000 to 10000 nM for the first, 1000 to 10000 nM for the second.

`N=C(N)c1cccc(NC(=O)Nc2ccccc2Br)c1` [Compound 3] and `N#Cc1ccccc1NC(=O)Nc1cccc(C(=N)N)c1` [Compound 4] fall in the same range of IC50: 1000 to 10000 nM for the first, 1000 to 10000 nM for the second.

First: CS(=O)(=O)c1ccc2nc(NC(=O)Nc3cccc(C(=N)N)c3)sc2c1 [Compound 6]
Second: N=C(N)c1cccc(NC(=O)Nc2ccc(S(N)(=O)=O)cc2[N+](=O)[O-])c1 [Compound 28]
The IC50 of the first is higher: 10000 to 100000 nM for the first, 1000 to 10000 nM for the second.

Compared with `N=C(N)c1cccc(NC(=O)Nc2ccc(Cl)c(C(F)(F)F)c2)c1` [Compound 9], `N=C(N)c1cccc(NC(=O)Nc2ccc(C(F)(F)F)cc2Br)c1` [Compound 11] is higher in IC50: less than 1000 nM for the first, 1000 to 10000 nM for the second.

`COC(=O)c1cc(NC(=O)Nc2cccc(C(=N)N)c2)cc(C(F)(F)F)c1` [Compound 12] and `COC(=O)c1cc(NC(=O)Nc2ccc(C(=N)N)cc2)cc(C(F)(F)F)c1` [Compound 16] fall in the same range of IC50: 1000 to 10000 nM for the first, 1000 to 10000 nM for the second.

`N=C(N)c1cccc(NC(=O)Nc2ccc(Br)cc2Br)c1` [Compound 14] and `N=C(N)c1cccc(NC(=O)Nc2ccc(S(N)(=O)=O)cc2)c1` [Compound 30] fall in the same range of IC50: 1000 to 10000 nM for the first, 1000 to 10000 nM for the second.

Compared with `CN1C(=O)c2ccc(NC(=O)Nc3cccc(C(=N)N)c3)cc2C1=O` [Compound 17], `CC(=O)Nc1cccc(NC(=O)Nc2cccc(C(=N)N)c2)c1` [Compound 66] is lower in IC50: 10000 to 100000 nM for the first, 1000 to 10000 nM for the second.

`N=C(N)c1cccc(NC(=O)Nc2ccc(S(=O)(=O)N3CCc4ccccc4C3)cc2)c1` [Compound 20] and `N=C(N)c1cccc(NC(=O)Nc2ccc(S(=O)(=O)Nc3ccccc3)cc2)c1` [Compound 26] fall in the same range of IC50: 1000 to 10000 nM for the first, 1000 to 10000 nM for the second.

Compared with `CCCCNS(=O)(=O)c1ccc(NC(=O)Nc2cccc(C(=N)N)c2)cc1` [Compound 21], `N=C(N)c1cccc(NC(=O)Nc2ccc(S(=O)(=O)NCc3ccccc3)cc2)c1` [Compound 33, 3-[3-(4-Benzylsulfamoyl-phenyl)-ureido]-benzamidine] is lower in IC50: 1000 to 10000 nM for the first, less than 1000 nM for the second. The second is the more potent here.

Compared with `N=C(N)c1cccc(NC(=O)Nc2ccc(S(=O)(=O)NC3C4CC5CC(C4)CC3C5)cc2)c1` (centres unmarked) [Compound 22], `N=C(N)c1cccc(NC(=O)Nc2ccc(S(=O)(=O)NCc3cccc(F)c3)cc2)c1` [Compound 36] is lower in IC50: 10000 to 100000 nM for the first, less than 1000 nM for the second.

First: N=C(N)c1cccc(NC(=O)Nc2ccc(S(=O)(=O)NC(c3ccccc3)c3ccccc3)cc2)c1 [Compound 23, 3-{3-[4-(benzhydrylsulfamoyl)-phenyl]-ureido}-benzamidine]
Second: CC(NS(=O)(=O)c1ccc(NC(=O)Nc2cccc(C(=N)N)c2)cc1)c1ccc(F)cc1 (centres unmarked) [Compound 48]
The IC50 of the first is lower: less than 1000 nM for the first, 1000 to 10000 nM for the second.

`N=C(N)c1cccc(NC(=O)Nc2ccc(S(=O)(=O)Nc3ccc(-c4ccc(N)cc4[N+](=O)[O-])cc3)cc2)c1` [Compound 27] and `N=C(N)c1cccc(NC(=O)Nc2ccc(S(=O)(=O)Nc3ccc4cccnc4c3)cc2)c1` [Compound 29] fall in the same range of IC50: 1000 to 10000 nM for the first, 1000 to 10000 nM for the second.

First: N=C(N)c1cccc(NC(=O)Nc2ccc(NS(=O)(=O)c3ccccc3)c(O)c2)c1 [Compound 31]
Second: Cc1ccc(S(=O)(=O)Nc2cccc(NC(=O)Nc3cccc(C(=N)N)c3)c2)cc1 [Compound 32]
The IC50 of the first is lower: 1000 to 10000 nM for the first, 10000 to 100000 nM for the second.

`N=C(N)c1cccc(NC(=O)Nc2ccc(S(=O)(=O)NCc3ccc(S(N)(=O)=O)cc3)cc2)c1` [Compound 35, 3-{3-[4-(4-sulfamoyl-benzylsulfamoyl)-phenyl]-ureido}-benzamidine] and `N=C(N)c1ccc(NC(=O)Nc2ccc(S(=O)(=O)NCc3ccc(S(N)(=O)=O)cc3)cc2)cc1` [Compound 51, 4-{3-[4-(4-sulfamoylbenzylsulfamoyl)-phenyl]-ureido}-benzamidine] cannot be ordered by IC50: less than 1000 nM for the first, less than 1000 nM for the second.

First: N=C(N)c1cccc(NC(=O)Nc2ccc(S(=O)(=O)NCc3cccc(C(F)(F)F)c3)cc2)c1 [Compound 37, 3-{3-[4-(3-trifluoromethyl-benzylsulfamoyl)-phenyl]-ureido}-benzamidine]
Second: N=C(N)c1cccc(NC(=O)Nc2ccc(S(=O)(=O)NCc3cccc(OC(F)(F)F)c3)cc2)c1 [Compound 49]
The IC50 of the first is lower: less than 1000 nM for the first, 1000 to 10000 nM for the second.

`N=C(N)c1cccc(NC(=O)Nc2ccc(S(=O)(=O)NCc3ccc(C(F)(F)F)cc3)cc2)c1` [Compound 38] and `N=C(N)c1cccc(NC(=O)Nc2ccc(S(=O)(=O)NCc3ccc(F)cc3)cc2)c1` [Compound 39] cannot be ordered by IC50: less than 1000 nM for the first, less than 1000 nM for the second.

`N=C(N)c1cccc(NC(=O)Nc2ccc(S(=O)(=O)NCc3ccccc3F)cc2)c1` [Compound 40] and `N=C(N)c1cccc(NC(=O)Nc2ccc(S(=O)(=O)NCc3cc(F)ccc3F)cc2)c1` [Compound 42] cannot be ordered by IC50: less than 1000 nM for the first, less than 1000 nM for the second.

`N=C(N)c1cccc(NC(=O)Nc2ccc(S(=O)(=O)NCc3cc(F)c(F)cc3F)cc2)c1` [Compound 41] and `N=C(N)c1cccc(NC(=O)Nc2ccc(S(=O)(=O)NCc3ccc(F)cc3F)cc2)c1` [Compound 43] fall in the same range of IC50: 1000 to 10000 nM for the first, 1000 to 10000 nM for the second.

First: N=C(N)c1cccc(NC(=O)Nc2ccc(S(=O)(=O)NCc3ccc(F)c(F)c3)cc2)c1 [Compound 44]
Second: N=C(N)c1cccc(NC(=O)Nc2ccc(S(=O)(=O)NCc3c(F)cccc3F)cc2)c1 [Compound 45]
The IC50 of the first is higher: 1000 to 10000 nM for the first, less than 1000 nM for the second.

First: N=C(N)c1cccc(NC(=O)Nc2ccc(S(=O)(=O)NCc3cc(F)cc(C(F)(F)F)c3)cc2)c1 [Compound 46]
Second: N=C(N)c1cccc(NC(=O)Nc2ccc(S(=O)(=O)NCc3c(F)ccc(F)c3F)cc2)c1 [Compound 47, 3-{3-[4-(2,3,6-trifluorobenzylsulfamoyl)-phenyl]-ureido}-benzamidine]
The IC50 of the first is higher: 1000 to 10000 nM for the first, less than 1000 nM for the second.

`N=C(N)c1ccc(NC(=O)Nc2ccc(S(=O)(=O)NCc3cccc(F)c3)cc2)cc1` [Compound 52] and `N=C(N)c1ccc(NC(=O)Nc2ccc(S(=O)(=O)NCc3ccc(F)cc3)cc2)cc1` [Compound 53] cannot be ordered by IC50: less than 1000 nM for the first, less than 1000 nM for the second.

`N=C(N)c1ccc(NC(=O)Nc2ccc(S(=O)(=O)NCc3c(F)cccc3F)cc2)cc1` [Compound 54] and `N=C(N)c1ccc(NC(=O)Nc2ccc(S(=O)(=O)NCc3c(F)ccc(F)c3F)cc2)cc1` [Compound 56] cannot be ordered by IC50: less than 1000 nM for the first, less than 1000 nM for the second.

`N=C(N)c1ccc(NC(=O)Nc2ccc(S(=O)(=O)NCc3ccc(F)cc3F)cc2)cc1` [Compound 55] and `N=C(N)c1cccc(NC(=O)Nc2ccc(S(=O)(=O)NCc3ccc([N+](=O)[O-])cc3)cc2)c1` [Compound 59] cannot be ordered by IC50: less than 1000 nM for the first, less than 1000 nM for the second.

`N=C(N)c1cccc(NC(=O)Nc2cccc(S(=O)(=O)NCc3cccc(F)c3)c2)c1` [Compound 57] and `N=C(N)c1cccc(NC(=O)Nc2cccc(S(=O)(=O)NCc3ccc(S(N)(=O)=O)cc3)c2)c1` [Compound 58] fall in the same range of IC50: 1000 to 10000 nM for the first, 1000 to 10000 nM for the second.

First: N=C(N)c1cccc(NC(=O)Nc2ccc(S(=O)(=O)NNC(=O)c3ccc(-c4ccccc4)cc3)cc2)c1 [Compound 60]
Second: N=C(N)c1cccc(NC(=O)Nc2ccc(S(=O)(=O)c3ccc([N+](=O)[O-])cc3)cc2)c1 [Compound 63, 3-{3-[4-(4-nitrobenzenesulfonyl)-phenyl]-ureido}-benzamidine]
The IC50 of the first is higher: 1000 to 10000 nM for the first, less than 1000 nM for the second.

For `N=C(N)c1cccc(NC(=O)Nc2ccc(S(=O)(=O)c3ccc(NCCO)cc3)cc2)c1` [Compound 65], the IC50 was 1000 to 10000 nM.
